From patent US20120196766A1, “Therapeutic Use of Farnesyltransferase Inhibitors and Methods of Monitoring the Efficacy Thereof” (priority 2004, published 2012)

How the values were obtained:
[1] = tested on: NF-κB-LH transfected HEK293 cells; assay: NF-κB reporter gene assay; assay type: cell-based; settings: tipifarnib 2 or 5 μM for 18 hours, TNF-α 10 ng/ml for 4 hours
Procedure: HEK293 cells were transfected with the NF-κB-LH plasmid (Biomyx) using Lipofectamine 2000, and stable clones were selected by culture in hygromycin (176 μg/ml). The resulting NF-κB-LH-transfected cells were seeded in DMEM/10% FCS in 96-well plates for use in luciferase reporter assays. On the following day, cells were treated with tipifarnib for 18 hours, then stimulated with TNF-α (10 ng/ml) for 4 hours, after which NF-κB activity was measured using the Steady-Glo® luciferase reporter assay system (Promega). NF-κB activation was calculated as the fold-induction by TNF-α over unstimulated control samples.

[2] = tested on: cachexia; settings: US 2004/0157773, WO 02/085364; cited from earlier work
[3] = cited from earlier work
[4] = tested on: THP-1 cells; assay: Reverse transcriptase and real-time quantitative PCR of LPS-induced transcription in THP-1 cells; assay type: cell-based, Human
Procedure: THP-1 cells were cultured in RPMI1640 medium, supplemented with 10% FBS/100 units/ml Penicillin/10 μg/ml Streptomycin at 37° C., under 5% CO2. […] For the untreated control group (no LPS, no compound) and LPS alone group, equivalent volumes of DMSO were added to the medium. Cells were cultured at 37° C. and pellets were collected at 0 hr, 1 hr, 3 hr, 6 hr, 12 hr & 24 hr. Cell pellets were stored at −80° C. if RNA isolation was not conducted immediately. For experiments to study cytokine secretion in culture supernatants, THP-1 cells were washed twice with PBS, resuspended at 3.4×10^5/ml and cultured in 96-well plates at 250 μL, per well at 37° C. […] Supernatants were collected at different time points as indicated in the figures and were kept at ≦−20° C. until analysis of cytokine production.
Total RNA was isolated using RNeasy mini kit from QIAGEN (Valencia, Calif.) according to the manufacturer's instructions. RNA samples were stored at −80° C.
Two to three micrograms of DNase-treated total RNA were reverse transcribed to cDNA using the Transcriptor First Strand cDNA Synthesis Kit (Roche Diagnostics Corporation, Indianapolis, Ind.) according to the instructions.
Real-time PCR was carried out with the LightCycler FastStart DNA Master^plus SYBR Green I kit (Roche Diagnostics) according to the manufacturer's instructions.
The PCR profile was as follows: (i) denaturation at 95° C. for 10 min. (ii) 45 cycles of 0 s at 95° C., 5 s at 54-58° C. (depending on Tm of the primers), 6-16 s (determined by the length of amplicon) at 72° C. (iii) melting curves for 0 s at 95° C., 15 s at 65° C. and 0 s at 95° C. (iv) cooling at 40° C. for 30 s. Transition rates were: 20° C./s for all steps except 0.1° C./s for 95° C. segment 3 of the melting curves.
For data analysis, the baseline adjustment was carried out in the “arithmetic” mode, and the fluorescence curve analysis was carried out in the “Second Derivative Maximum” mode of the LightCycler™ software (Version 3.5).
The primers used for real-time PCR were as follows (5′ to 3′): […]

[5] = tested on: THP-1 cells; assay: Western blot analysis of LPS, TNF-α and IL-1α induced signaling in THP-1 cells; assay type: cell-based, Human
Procedure: THP-1 cells in 0.5% FBS/RPMI were pre-treated with or without tipifarnib for 18 hours, and subsequently stimulated with LPS (100 ng/ml), TNF-α (10 ng/ml) or IL-1α (5 ng/ml) for 30 minutes. Cells were harvested, washed three times in ice-cold PBS, and lysed in lysis buffer (20 mM Tris (pH 7.5), 150 mM NaCl, 1 mM EDTA, 1 mM EGTA, 1% Triton X-100, 2.5 mM sodium pyrophosphate, 1 mM ([…], 1 mM Na3VO4, 1 μg/ml Leupeptin, 1 mM PMSF). Cell lysates from each sample were mixed with an equal amount of 2× SDS-PAGE sample buffer (Invitrogen), and proteins were separated by electrophoresis in Tris-glycine 10-20% gradient gels (Novex), and transferred to nitrocellulose membranes (PROTRAN; Schleicher & Schuell). The membranes were blocked with 3% BSA in PBS-0.05% Tween-20, and sequentially incubated with primary antibodies and HRP-conjugated secondary antibodies (anti-rabbit IgG or anti-mouse IgG and IgM; PIERCE), followed by ECL detection (Amersham Biosciences). The primary antibodies used were rabbit polyclonal anti-IκBa, and -p38 (Santa Cruz), mouse monoclonal anti-H-Ras (Chemicon), mouse monoclonal anti-phospho-p38 and rabbit polyclonal anti-phospho-Erk (Cell Signaling Technology).

[6] = simvastatin 10 μM or tipifarnib 5 μM, 6 and 12 hours

SMILES: Cn1cncc1C(N)(c1ccc(Cl)cc1)c1ccc2c(c1)c(-c1cccc(Cl)c1)cc(=O)n2C (single isomer, unassigned; (+)) [tipifarnib, (+)-6-[amino(4-chlorophenyl)(1-methyl-1H-imidazol-5-yl)methyl]-4-(3-chlorophenyl)-1-methyl-2(1H)-quinolinone]
- TNF-α induced NF-κB activity [1]: not inhibited
- cachexia [2]: inhibition
- protein binding [3]: highly protein-bound
- Induction of IL-8 by LPS [4, 6]: no significant effect
- STAT1 induction by LPS [4, 6]: inhibited
- Induction of IL-8 by LPS ([4]; simvastatin 10 μM or tipifarnib 5 μM, 3 hours): unaffected
- peak of LPS-induced IL-6 transcription ([4]; simvastatin 10 μM or tipifarnib 5 μM, 6 hours): inhibition
- LPS-induced IL-6 transcription ([4]; simvastatin 10 μM or tipifarnib 5 μM, 12 hours): inhibition
- LPS-induced IL-1β transcription ([4]; simvastatin 10 μM or tipifarnib 5 μM, after 6 and 12 hours): significantly downregulated
- LPS-induced MCP-1 transcription ([4]; simvastatin 10 μM or tipifarnib 5 μM, from 6 hours): inhibited significantly
- LPS-induced IL-1β transcription ([4]; simvastatin 10 μM or tipifarnib 5 μM, up to 3 hours): unaffected
- MyD88 induction by LPS ([4]; tipifarnib 5 μM, 6 and 12 hours): almost complete inhibition
- MMP-9 induction by LPS ([4]; tipifarnib 5 μM, 12 hours): no induction
- IκB degradation induced by IL-1α ([5]; 2 μM tipifarnib for 18 hours): no inhibition
- IκB degradation induced by TNF-α ([5]; 2 μM tipifarnib for 18 hours): no inhibition
- LPS-induced IκB degradation ([5]; 2 μM tipifarnib for 18 hours): significantly inhibited
- LPS-induced p38 phosphorylation ([5]; 2 μM tipifarnib for 18 hours): partially reduced
- P38 protein expression ([5]; 2 μM tipifarnib for 18 hours): not affected
- TNF-α induced p38 phosphorylation ([5]; 2 μM tipifarnib for 18 hours): No significant inhibition
- H-Ras farnesylation ([5]; tipifarnib pre-treatment, all treatment groups): partially inhibited
- ERK phosphorylation ([5]; tipifarnib pre-treatment, control and stimulated cells): reduced
